Assay results reported in patent US9132108B2, “Pharmaceutical composition for ameliorating and/or preventing leptin resistance, and use thereof” (HIROSHIMA UNIVERSITY, priority 2009, dated 2015).

Columns and labels:
Assay type in all cases: in vivo, mouse
[1] = system: mice given high-fat diet (leptin resistance); assay: Leptin-induced inhibition of food intake (Example 7); conditions: Group 4 (high-fat diet+flurbiprofen); 10 mg/kg per day orally, 8 weeks; leptin 0.5 mg/kg i.p.; no significant difference vs Group 1
Description: Specifically, 4 weeks-old male mice (C57BL/6 Cr Slc) were divided into four groups each consisting of 6-8 mice. Mice of individual groups were given diets as follows for 8 weeks similarly with Example 5. • Group 1: Normal diet (10 kcal % fat) only • Group 2: High-fat diet (60 kcal % fat) only • Group 3: Normal diet+flurbiprofen • Group 4: High-fat diet+flurbiprofen
Flurbiprofen (F8514, produced by SIGMA) was diluted with drinking water so that the administration amount of flurbiprofen would be 10 mg/kg per day, and was orally administered to the mice in the form of drinking water.
FIG. 11 is a drawing showing the procedure of the test in Example 7. […] The mice were then habituated for 3 days. Day 0 was the date when the isolation started. In order to eliminate the influence of injection on feeding behavior, 5 mL/kg of physiological saline was intraperitoneally (i.p.) administered as dummy on Days 3 and 4. […]
Subsequently, 0.5 mg/kg of leptin (498-OB, rmLeptin, produced by R&D systems) was intraperitoneally (i.p.) administered on Day 6 and the amount of food intake up to 24 hours after the leptin administration was measured on Day 7. Using the ratio of the amount of food intake on Days 6 and 7 to the amount of food intake on Days 5 and 6 as a reference index, what influence leptin had on the amount of food intake (rate of change in amount of food intake) was analyzed. […]

blood glucose level = assay: Glucose tolerance test in leptin-resistant mice (Example 11); conditions: 3 hours after glucose 2 g/kg i.p.; 3 mg/kg per day orally, 3 weeks; vs control group; P<0.07 in t-test
Description: Similarly with Example 8, 4 weeks-old male mice (C57BL/6 Cr Slc) had been given high-fat diet for 6 months so that leptin resistance would be induced in the mice. Thereafter, the mice were divided into two groups (each consisting of 8 mice), and the mice of individual groups were given the following diets for 3 weeks. • Control group: normal diet (10 kcal % fat) only • Flurbiprofen-administered group: normal diet+flurbiprofen Flurbiprofen (F8514, produced by SIGMA) was diluted with drinking water so that the administration amount of flurbiprofen would be 3 mg/kg per day, and was orally administered to the mice in the form of drinking water. The mice to which flurbiprofen had been administered for 3 weeks were subjected to a glucose tolerance test. In Example 11, mice were fasted overnight for 17 hours from between 17:00 and 18:00 of the previous day, and fasted blood glucose level (pre) was measured by Freestyle freedom (NIPRO CORPORATION, blood glucose self-monitoring system) at 10:00 to 11:00. Thereafter, glucose was intraperitoneally (i.p.) administered so that the administration amount of glucose would be 2 g/kg. Blood glucose level was measured using Freestyle freedom (NIPRO CORPORATION, blood glucose self-monitoring system) 30 minutes, 1 hour, 2 hours, 3 hours, and 4 hours after glucose administration. FIG. 17 is a graph showing the result of the glucose tolerance test. […]

mice = assay: Body length of mice after flurbiprofen administration (Example 10); conditions: flurbiprofen-administered group vs control group; 3 mg/kg per day orally, 3 weeks
Description: (§1) Similarly with Example 8, 4 weeks-old male mice (C57BL/6 Cr Slc) had been given high-fat diet for 6 months so that leptin resistance would be induced in the mice. Thereafter, the mice were divided into two groups (each consisting of 8 mice), and the mice of individual groups were given the following diets for 3 weeks. • Control group (Cont): normal diet (10 kcal % fat) only • Flurbiprofen-administered group (Ful): normal diet+flurbiprofen Flurbiprofen (F8514, produced by SIGMA) was diluted with drinking water so that the administration amount of flurbiprofen would be 3 mg/kg per day, and was orally administered to the mice in the form of drinking water. The result of measurement of body length of the mice, to which flurbiprofen had been administered for 3 weeks, is shown in FIG. 16. FIG. 16 is a graph showing the body length (cm) of the mice of the control group and the mice of the flurbiprofen-administered group which had been given normal diet for 3 weeks. Values in the graph of FIG. 16 are averages of body lengths (cm) of mice of each group (± their standard deviations) (n=8 with respect to each group). Further, statistic analysis was carried out using t-test.

[2] = system: circulating leptin levels; assay: Circulating leptin levels of leptin-resistant mice (Example 9); conditions: 3 weeks after flurbiprofen administration, 3 mg/kg per day orally; control 106.51±3.7122; P<0.05
Description: as §1, with “The result of measurement of body length of the mice, to which flurbiprofen had been administered for 3 weeks, is shown in” left out, “15” for “16. FIG. 16”, “circulating leptin levels (ng/ml)” for “the body length (cm)”, “15” for “16”, “circulating leptin levels (ng/ml)” for “body lengths (cm)”

In the case of `C[C@@H](C(=O)O)c1ccc(-c2ccccc2)c(F)c1` [flurbiprofen], the “rate of change in amount of food intake after leptin administration” value [1] is reported as “reduced food intake caused by leptin”, the “blood glucose level in glucose tolerance test” value (blood glucose level) is reported as “reduced blood glucose level” and the body length (mice) is reported as “no significant difference in body length”. The circulating leptin level [2] was 87.105 ± 5.4415 ng/mL.
